Assay results taken from patent publication US20230210994A1, “CELL-PENETRATING CONJUGATE SYSTEMS” (Danmarks Tekniske Universitet, priority 2019, published 2023).
“Also recorded” adds a separate entry of the source. Values belong to the compound of their own block, whether it stands above or below them.

Columns and labels:
[1] = system: pig intestine (gut epithelium); assay: Binding of conjugate system to the pig intestine (gut epithelium) ex vivo
Protocol: Biological functionality and compliance was tested utilizing intestinal tissue from pigs. A cross section of the pig intestine (1 cm^2)was cleaned and subjected to the conjugate (1 mg/ml; 3.65 mM). After incubation (1 hour) of said tissue with the conjugate system, 4-hydroxybutyl L-tryptophanate, the tissue was washed and excess mucous layer removed by gentle physical exfoliation (scrapping via a spatula).

[2] = system: CT-26 cells; assay: Ethidium-homodimer internalization in CT-26 cells, fluorescent confocal microscopy; format: cell-based, mouse
Protocol: CT-26 cells in culture were co-incubated with the conjugate system, 4-hydroxybutyl L-tryptophanate, (1 mg/ml) and Etidium-homodimer (2 μl/ml) for 1 hour and observed under fluorescent confocal microscope. Working ratio was set as 1:3 and two reaction sets comprising of higher (80 μl) loading and standard loading (40 μl ) were performed. Emission bandwidth was set as 490-550nm and 590-680 nm.

[3] = system: CT26 cells; assay: Uptake of Oxaliplatin by CT26 cells measured by ICP-MS; format: cell-based, mouse; details: for enhancement of OxPt internalization versus OxPt alone: 10 μM OxPt, 24 hours
Protocol: CT26 cells were seeded in 24-well plate (100.000 cells/mL/well) exposed to Oxaliplatin (Ox-Pt, 10 μM and 30 μM) with/and without conjugate the molar ratio of 1:1, 1:3 and 3:1 respectively. After 1, 4, 24 hours of incubation, media was discarded and the cells were washed with PBS twice, once with heparin (to remove anything associated externally with the cell membrane) and once more with PBS. Then the cells were detached from the wells using trypsin and cells were counted. Finally, each sample was diluted in HCl acid and further diluted in 2% HCl with (0.5 ppb Ir), then Pt content was measured in the ICP-MS.

[4] = system: CT-26 cells; assay: Cellular internalization of insulin (Novorapid) in CT-26 cells, MALDI-TOF; format: cell-based, mouse; details: commercial insulin (20 μl) + conjugate (20 μl), 4 hours
Protocol: MALDI-TOF is a standard technique for analysis of molecules based upon their mass/charge (m/z) ratio. In this study, the inventors exposed CT-26 cells with commercial insulin (20 μl) and conjugate system, 4-hydroxybutyl L-tryptophanate (20 μl). After 4 hours, the cells were sonicated (ruptured) and cell-debris removed; Resulting supernatant was subjected to MALDI analysis.

[5] = system: CT26 colon cancer cells; assay: Internalization of INS-FITC in CT26 cells, flow cytometry and fluorescent imaging; format: cell-based, mouse
Protocol: CT26 colon cancer cells were seeded in 24-well plates at 100.000 cells/well/mL. After 24 hours, cells were treated with INS-FITC at 10 μM or 30 μM concentration either alone or in combination with the conjugate 4-hydroxybutyl L-tryptophanate in three different molar ratios (1:1, 1:3 or 3:1). Treatments were co-incubated with the CT26 cells for 1 h, 4 h or 24 h. Before observation, cells were washed several times with PBS, and with heparin, to ensure removal of compounds that might remain softly bound to cell membrane and not internalized. Then the washed cells were detached from the wells using trypsin, centrifuged and re-suspended in PBS for analysis by flow cytometry. In flow the cells were gated as singlets (single cell events) and then the fluorescence was recorded for each event in the specific FL channel were the compound has its emission max (INS-FITC: FL1 (525+/−40).

[6] = system: CT-26 cells; assay: Internalization of Paclitaxel (PTX) in CT-26 cells measured by flow cytometry; format: cell-based, mouse
Protocol: There is a remarkable increment in the percentage of cells containing PTX when co-administered with the conjugate, especially after 24 hours incubation. (c) depicts the amount of PTX internalization expressed as mean fluorescence intensity (MFI).

[7] = system: CT26 cells; assay: Internalization of resiquimod (R848) in CT26 cells detected by HPLC; format: cell-based, mouse
Protocol: CT26 cells were seeded in 24-well plates (10^5 cells/well). After 24 hours the cells were treated with either 100 or 300 μM concentration of resiquimod (R848) alone or in combination with the 4-hydroxybutyl L-tryptophanate conjugate. After 4 and 24 hours incubation cells were washed with cold PBS and with heparin solution (0.1 mg/mL heparin in PBS), and detached from the wells using trypsin. Then the cells were diluted in acetonitrile with 0.1% TFA and the amount of R848 was detected by HPLC.

[8] = In vivo insulin delivery and bioavailability experiment, oral enteric-coated capsule; design: species or system Sprague-Dawley rats
Protocol: […] Insulin dosage was estimated to be ˜120 I.U. The capsule was mechanically guided across the duodenum and rat-tail plasma samples were collected for a period of 3 hours (at specified periodic intervals). Blood glucose measurement was made with Glucometer and plasma insulin concentration via ELISA.

[9] = system: mouse CD-4 (+) T-cells; assay: Fluorescent tagging of T-cells, confocal Z-stack imaging; format: cell-based; details: 100 μL conjugate (1 mg/ml) added to 500 μL cell suspension, 24 hours
Protocol: 100 μL 4-hydroxybutyl L-tryptophanate conjugate (1 mg/ml) was added to the cell suspension solution (500 μL; 1×10^5 cells/mL) and incubated for 24 hours. Cells were washed with PBS buffer and analyzed via Z-stack imaging was to confirm internalization of the 4-hydroxybutyl L-tryptophanate conjugate. Cell imaging was done for 0, 24, 48 and 72 hours—though 24 hours was found the optimum time frame.

[10] = cited from earlier work

fluorescence signal on tissue (tissue binding and transmembrane penetration) ([1]; conjugate 1 mg/ml (3.65 mM), 1 hour incubation, tissue washed, excess mucous layer removed): clear fluorescence signal
condition of CT-26 cells and membranes after co-administration ([2]; conjugate 1 mg/ml + EtDi 2 μl/ml, 1 hour): healthy with fully intact membranes
Compound: N[C@@H](Cc1c[nH]c2ccccc12)C(=O)OCCCCO [4-hydroxybutyl L-tryptophanate]
normalized fluorescence intensities on tissue versus controls on glass ([1]; conjugate 1 mg/ml, 1 hour): higher than controls incubated on a glass sample
penetration across mucosal layer and binding to gut epithelium despite repeated washes ([1]; pig intestine with mucus): deeply penetrate across mucosal layer on intestinal epithelium and bind to the tissue
internalization of Ethidium-homodimer (EtDi) ([2]; EtDi 2 μl/ml co-administered with conjugate 1 mg/ml, 1 hour): confirmed; also recorded: got internalized into the cells
increase of EtDi fluorescence (mean pixel intensity of confocal images) compared with EtDi alone ([2]; EtDi combined with the conjugate): 8.67 fold
Z-stack analysis at single cell level ([2]; conjugate + EtDi): internalization of both the EtDi and conjugate
enhancement of OxPt internalization versus OxPt alone ([3]; conjugate:OxPt 10:10 molar ratio): 37.6%
enhancement of OxPt internalization versus OxPt alone ([3]; conjugate:OxPt 30:10 molar ratio): 23.5%
internalization percentage of OxPt increased to ([3]; 30 μM OxPt, 10:30 ratio (Conj.:OxPt)): 451%
Pt signal in CT26 cells compared to OxPt alone ([3]; combination of OxPt and the conjugate, overall): increased amount of Pt signal
insulin signal in MALDI-TOF of cell supernatant [4]: clearly distinct
fluorescence under fluorescent microscope ([5]; conjugate alone, post 24-hours incubation): No observable fluorescence
percentage increase of INS-FITC internalization (MFI) compared to free insulin at the same concentration ([5]; conjugate to insulin 30:10 μM, 24 hours): around 72.3%
percentage increase of INS-FITC internalization (MFI) ([5]; conjugate:INS-FITC 10:10 μM, 4 hours): 20.5%
percentage increase of INS-FITC internalization (MFI) ([5]; insulin to conjugate 30:10 μM, constant from 4 to 24 hours): 11.4%
% cells uptake (1 h), CT-26 cells with PTX internalized ([6]; Conjugate 10 μM + PTX 10 μM, 1 h): 4.7%
% cells uptake (4 h), CT-26 cells with PTX internalized ([6]; Conjugate 10 μM + PTX 10 μM, 4 h): 6.2%
% cells with uptake (24 h), CT-26 cells with PTX internalized ([6]; Conjugate 10 μM + PTX 10 μM): 22.1%
% cells uptake (1 h), CT-26 cells with PTX internalized ([6]; Conjugate 10 μM + PTX 30 μM, 1 h): 5.0%
% cells uptake (4 h), CT-26 cells with PTX internalized ([6]; Conjugate 10 μM + PTX 30 μM, 4 h): 6.9%
% cells with uptake (24 h), CT-26 cells with PTX internalized ([6]; Conjugate 10 μM + PTX 30 μM): 29.2%
% cells uptake (1 h), CT-26 cells with PTX internalized ([6]; Conjugate 30 μM + PTX 10 μM, 1 h): 11.2%
% cells uptake (4 h), CT-26 cells with PTX internalized ([6]; Conjugate 30 μM + PTX 10 μM, 4 h): 17.6%
% cells with uptake (24 h), CT-26 cells with PTX internalized ([6]; Conjugate 30 μM + PTX 10 μM, listed as Conjugate): 49.8%
% cells with uptake (24 h), CT-26 cells with PTX internalized ([6]; Conjugate 30 μM + PTX 10 μM, listed as conjugate): up to 50%
Percentage increase in PTX signal (MFI) compared to PTX alone; head: % cells with uptake (24 h) ([6]; PTX 10 μM, Conjugate:PTX molar ratio 1:1 (10:10)): 22.3%
Percentage increase in PTX signal (MFI) compared to PTX alone; head: % cells uptake (1 h) ([6]; PTX 10 μM, Conjugate:PTX molar ratio 1:1, 1 h): 6.8%
Percentage increase in PTX signal (MFI) compared to PTX alone; head: % cells uptake (4 h) ([6]; PTX 10 μM, Conjugate:PTX molar ratio 1:1, 4 h): 12.4%
Percentage increase in PTX signal (MFI) compared to PTX alone; head: % cells uptake (1 h) ([6]; PTX 10 μM, Conjugate:PTX molar ratio 3:1 (30:10), 1 h): 20.6%
Percentage increase in PTX signal (MFI) compared to PTX alone; head: % cells uptake (1 h) ([6]; PTX 10 μM, Conjugate:PTX molar ratio 3:1 (30:10), 1 h, listed as Conjugate): 7.8%
Percentage increase in PTX signal (MFI) compared to PTX alone; head: % cells uptake (4 h) ([6]; PTX 10 μM, Conjugate:PTX molar ratio 3:1 (30:10), 4 h): 32.4%
Percentage increase in PTX signal (MFI) compared to PTX alone; head: % cells uptake (4 h) ([6]; PTX 10 μM, Conjugate:PTX molar ratio 3:1 (30:10), 4 h, listed as Conjugate): 11.4%
Percentage increase in PTX signal (MFI) compared to PTX alone; head: % cells with uptake (24 h) ([6]; PTX 10 μM, Conjugate:PTX molar ratio 3:1 (30:10)): 56.2%
Percentage increase in PTX signal (MFI) compared to PTX alone; head: % cells with uptake (24 h) ([6]; PTX 10 μM, Conjugate:PTX molar ratio 3:1 (30:10), listed as Conjugate): 27.1%
Percentage increase in PTX signal (MFI) compared to PTX alone; head: % cells uptake (1 h) ([6]; PTX 30 μM, Conjugate:PTX molar ratio 1:3 (10:30), 1 h): 20.6%
Percentage increase in PTX signal (MFI) compared to PTX alone; head: % cells uptake (4 h) ([6]; PTX 30 μM, Conjugate:PTX molar ratio 1:3 (10:30), 4 h): 32.4%
Percentage increase in PTX signal (MFI) compared to PTX alone; head: % cells with uptake (24 h) ([6]; PTX 30 μM, Conjugate:PTX molar ratio 1:3 (10:30)): 27.1%
Percentage increase in PTX signal (MFI) compared to PTX alone; head: % cells with uptake (24 h) ([6]; PTX 30 μM, Conjugate:PTX molar ratio 1:3 (10:30), listed as Conjugate): 56.2%
Fold increase internalization of resiquimod (R848) compared to R848 alone ([7]; conjugate (100 μM) + R848 (100 μM), 4 hours, listed as 4-hydroxybutyl L-tryptophanate conjugate): 4.9 fold
Fold increase internalization of resiquimod (R848) compared to R848 alone ([7]; conjugate (100 μM) + R848 (100 μM), 24 hours): 0.9 fold
Fold increase internalization of resiquimod (R848) compared to R848 alone ([7]; conjugate (100 μM) + R848 (300 μM), 4 hours): 1.4 fold
Fold increase internalization of resiquimod (R848) compared to R848 alone ([7]; conjugate (100 μM) + R848 (300 μM), 24 hours): 1.8 fold
Fold increase internalization of resiquimod (R848) compared to R848 alone ([7]; conjugate (300 μM) + R848 (100 μM), 4 hours): 1.5 fold
Fold increase internalization of resiquimod (R848) compared to R848 alone ([7]; conjugate (300 μM) + R848 (100 μM), 24 hours): 1.1 fold
drop in blood sugar ([8]; insulin 1.1 mg (~80 I.U) + conjugate 8 mg, within twenty minutes, n=3): ~15%
drop in blood sugar ([8]; insulin 1.5 mg (~120 I.U.) + conjugate 0.5 mg, within the first hour, n=2): ~20%
cellular internalization of the conjugate (Z-stack imaging, fluorescence 488 nm) [9]: confirmed cellular internalization

Compound: Nc1ccc2c(c1)c(-c1ccccc1)[n+](CCCNCCNCCC[n+]1c(-c3ccccc3)c3cc(N)ccc3c3ccc(N)cc31)c1cc(N)ccc21 [EtDi, Ethidium-homodimer, reference compound]
cell penetration of EtDi ([2]; EtDi alone, without conjugate): cannot penetrate into the cell

Compound: O=C1[O][Pt]2([NH][C@@H]3CCCC[C@H]3[NH]2)[O]C1=O [OxPt, Oxaliplatin, reference compound]
OxPt uptake over time ([3]; 30 μM OxPt alone, peaking at 4 h): no apparent increase

Compound: CC(=O)O[C@H]1C(=O)[C@@]2(C)[C@H]([C@H](OC(=O)c3ccccc3)[C@]3(O)C[C@H](OC(=O)[C@H](O)[C@@H](NC(=O)c4ccccc4)c4ccccc4)C(C)=C1C3(C)C)[C@]1(OC(C)=O)CO[C@@H]1C[C@@H]2O [PTX, Paclitaxel, reference compound]
% cells uptake (1 h), CT-26 cells with PTX internalized ([6]; PTX 10 μM alone, 1 h): 2.3%
% cells uptake (4 h), CT-26 cells with PTX internalized ([6]; PTX 10 μM alone, 4 h): 2.4%
% cells with uptake (24 h), CT-26 cells with PTX internalized ([6]; PTX 10 μM alone): 7.7%
% cells uptake (1 h), CT-26 cells with PTX internalized ([6]; PTX 30 μM alone, 1 h): 2.2%
% cells uptake (4 h), CT-26 cells with PTX internalized ([6]; PTX 30 μM alone, 4 h): 3.0%
% cells with uptake (24 h), CT-26 cells with PTX internalized ([6]; PTX 30 μM alone): 7.6%

Compound: N[C@@H](Cc1c[nH]c2ccccc12)C(=O)O [tryptophan]
pKa of deprotonated carboxylic acid (—COO−) [10]: 2.38
pKa of protonated amino group (—NH3+) [10]: 9.39

Compound: INS-FITC: fluorescently labelled insulin, insulin conjugated with FITC [reference compound]
internalization in cells (share of cells) ([5]; INS-FITC alone): 100%
